Inconclusive results and toxic doses are left out. Rule as the data show it: active = T/C of 150% or more; inactive = T/C below 125%.
System: L1210 leukemia ip in BDF1 mice, survival T/C
Experiment: NCI In Vivo Anticancer Drug Screen. Data for tumor model L1210 Leukemia (intraperitoneal) in B6D2F1 (BDF1) mice
Settings: endpoint: mean survival time, higher = longer survival
Summary of the method: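 Transplanted-tumor mice were given test agent; controls received vehicle only. Survival readings from the two groups were divided (treated over control).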

[1] = dose: 100.0 mg/kg/injection, schedule: Q01DX001 (ip), vehicle: saline
[2] = dose: 200.0 mg/kg/injection, schedule: Q01DX001 (ip), vehicle: saline
[3] = dose: 400.0 mg/kg/injection, schedule: Q01DX001 (ip), vehicle: saline
[4] = dose: 100.0 mg/kg/injection, schedule: Q04DX003 (ip), vehicle: saline with Tween-80
[5] = dose: 100.0 mg/kg/injection, schedule: Q01DX009 (ip), vehicle: Klucel (hydroxypropylcellulose) (HPC)
[6] = dose: 50.0 mg/kg/injection, schedule: Q04DX002 (ip), vehicle: saline with Tween-80
[7] = dose: 100.0 mg/kg/injection, schedule: Q04DX002 (ip), vehicle: saline with Tween-80
[8] = dose: 200.0 mg/kg/injection, schedule: Q04DX002 (ip), vehicle: saline with Tween-80

Measured: T/C

CCC1(Sc2ncnc3nc[nH]c23)C(=O)NC(=O)NC1=O
active: dose: 22.0 mg/kg/injection, schedule: Q01DX015 (ip), vehicle: saline 154 % of control | dose: 33.0 mg/kg/injection, schedule: Q01DX015 (ip), vehicle: saline 157 % of control | dose: 50.0 mg/kg/injection, schedule: Q01DX015 (ip), vehicle: saline 164 % of control | dose: 75.0 mg/kg/injection, schedule: Q01DX015 (ip), vehicle: saline 183 % of control | dose: 200.0 mg/kg/injection, schedule: Q01DX015 (ip), vehicle: alkali diluted with saline 166 % of control
inactive: dose: 6.25 mg/kg/injection, schedule: Q01DX015 (ip), vehicle: alkali diluted with saline 124 % of control | dose: 100.0 mg/kg/injection, schedule: Q01DX001 (ip), vehicle: alkali diluted with saline 103 % of control | dose: 200.0 mg/kg/injection, schedule: Q01DX001 (ip), vehicle: alkali diluted with saline 106 % of control | dose: 400.0 mg/kg/injection, schedule: Q01DX001 (ip), vehicle: alkali diluted with saline 114 % of control | dose: 400.0 mg/kg/injection, schedule: Q01DX015 (ip), vehicle: alkali diluted with saline 109 % of control

CCc1nc2c(OC)ccc(OC)c2[nH]c1=O
inactive: dose: 100.0 mg/kg/injection, schedule: Q04DX003 (ip), vehicle: other 103 % of control | dose: 200.0 mg/kg/injection, schedule: Q04DX003 (ip), vehicle: other 103 % of control | dose: 400.0 mg/kg/injection, schedule: Q04DX003 (ip), vehicle: other 106 % of control

CCCCCCCC/C=C\CCCCCCCC(=O)O.[Fe]
inactive: [1] 93 % of control | [2] 95 % of control | [3] 90 % of control

NC(=O)/C=C/C(N)=O
inactive: dose: 25.0 mg/kg/injection, schedule: Q01DX009 (ip), vehicle: saline with Tween-80 91 % of control | dose: 50.0 mg/kg/injection, schedule: Q01DX009 (ip), vehicle: saline with Tween-80 88 % of control | dose: 100.0 mg/kg/injection, schedule: Q01DX009 (ip), vehicle: saline with Tween-80 88 % of control | [4] 89 % of control | dose: 200.0 mg/kg/injection, schedule: Q04DX003 (ip), vehicle: saline with Tween-80 94 % of control | dose: 400.0 mg/kg/injection, schedule: Q04DX003 (ip), vehicle: saline with Tween-80 92 % of control

O=C1NC(c2cccc(OCc3ccccc3)c2)Nc2ccccc21 (stereo not drawn)
inactive: dose: 50.0 mg/kg/injection, schedule: Q01DX009 (ip), vehicle: Klucel (hydroxypropylcellulose) (HPC) 105 % of control | [5] 107 % of control | dose: 150.0 mg/kg/injection, schedule: Q01DX009 (ip), vehicle: Klucel (hydroxypropylcellulose) (HPC) 109 % of control

CCCCCC(/C=N/N=C(N)N)=N\N=C(N)N
inactive: dose: 15.0 mg/kg/injection, schedule: Q01DX Z (ip), vehicle: carboxymethylcellulose (CMC) 98 % of control | dose: 30.0 mg/kg/injection, schedule: Q01DX Z (ip), vehicle: carboxymethylcellulose (CMC) 97 % of control | dose: 30.0 mg/kg/injection, schedule: Q01DX Z (oral), vehicle: carboxymethylcellulose (CMC) 98 % of control | dose: 60.0 mg/kg/injection, schedule: Q01DX Z (ip), vehicle: carboxymethylcellulose (CMC) 95 % of control | dose: 60.0 mg/kg/injection, schedule: Q01DX Z (oral), vehicle: carboxymethylcellulose (CMC) 87 % of control | dose: 120.0 mg/kg/injection, schedule: Q01DX Z (oral), vehicle: carboxymethylcellulose (CMC) 91 % of control | dose: 240.0 mg/kg/injection, schedule: Q01DX Z (oral), vehicle: carboxymethylcellulose (CMC) 95 % of control

O=NN(CCCl)C(=O)N[C@H]1CCCC[C@H]1O
active: dose: 12.0 mg/kg/injection, schedule: Q01DX001 (ip), vehicle: saline with Tween-80 176 % of control | dose: 18.0 mg/kg/injection, schedule: Q01DX001 (ip), vehicle: saline with Tween-80 301 % of control | dose: 26.0 mg/kg/injection, schedule: Q01DX001 (ip), vehicle: saline with Tween-80 443 % of control | dose: 40.0 mg/kg/injection, schedule: Q01DX001 (ip), vehicle: saline with Tween-80 442 % of control | dose: 60.0 mg/kg/injection, schedule: Q01DX001 (ip), vehicle: saline with Tween-80 205 % of control

CC[N+](C)(CC)CCCN(C)C(=O)C(c1ccccc1)c1ccccc1
inactive: dose: 12.5 mg/kg/injection, schedule: Q01DX001 (ip), vehicle: saline 92 % of control | dose: 12.5 mg/kg/injection, schedule: Q04DX003 (ip), vehicle: saline 98 % of control | dose: 25.0 mg/kg/injection, schedule: Q01DX001 (ip), vehicle: saline 103 % of control | dose: 25.0 mg/kg/injection, schedule: Q04DX003 (ip), vehicle: saline 93 % of control | dose: 50.0 mg/kg/injection, schedule: Q01DX001 (ip), vehicle: saline 92 % of control | dose: 50.0 mg/kg/injection, schedule: Q04DX003 (ip), vehicle: saline 93 % of control | dose: 75.0 mg/kg/injection, schedule: Q04DX003 (ip), vehicle: saline 97 % of control

CC(C)(C)C1CCC(N=C(N)CCl)CC1 (stereo not drawn)
inactive: dose: 6.25 mg/kg/injection, schedule: Q01DX009 (ip), vehicle: Klucel (hydroxypropylcellulose) (HPC) 98 % of control | dose: 12.5 mg/kg/injection, schedule: Q01DX009 (ip), vehicle: Klucel (hydroxypropylcellulose) (HPC) 102 % of control | dose: 12.5 mg/kg/injection, schedule: Q04DX002 (ip), vehicle: Klucel (hydroxypropylcellulose) (HPC) 103 % of control | dose: 25.0 mg/kg/injection, schedule: Q01DX009 (ip), vehicle: Klucel (hydroxypropylcellulose) (HPC) 98 % of control | dose: 25.0 mg/kg/injection, schedule: Q04DX002 (ip), vehicle: Klucel (hydroxypropylcellulose) (HPC) 100 % of control

COc1ccc(NC(=O)NO)cc1
inactive: [6] 108 % of control | [7] 101 % of control | [8] 108 % of control

C[n+]1ccc2cc(-c3ccccc3)c3ccccc3c2c1
inactive: dose: 1.56 mg/kg/injection, schedule: Q01DX009 (ip), vehicle: water 102 % of control | dose: 3.12 mg/kg/injection, schedule: Q01DX009 (ip), vehicle: water 104 % of control | dose: 6.25 mg/kg/injection, schedule: Q01DX009 (ip), vehicle: water 104 % of control | dose: 6.25 mg/kg/injection, schedule: Q04DX003 (ip), vehicle: water 98 % of control | dose: 12.5 mg/kg/injection, schedule: Q01DX009 (ip), vehicle: water 95 % of control | dose: 12.5 mg/kg/injection, schedule: Q04DX003 (ip), vehicle: water 103 % of control | dose: 25.0 mg/kg/injection, schedule: Q04DX003 (ip), vehicle: water 88 % of control

CC1(C)C=CC2CC2(C)C(=O)C1 (stereo not drawn)
inactive: [7] 98 % of control | [8] 112 % of control | dose: 400.0 mg/kg/injection, schedule: Q04DX002 (ip), vehicle: saline with Tween-80 102 % of control

O=C(Nc1ccc(Cl)c(Cl)c1)c1ccc(C(=O)Nc2ccc(Cl)c(Cl)c2)cc1
inactive: [5] 91 % of control | dose: 200.0 mg/kg/injection, schedule: Q01DX009 (ip), vehicle: Klucel (hydroxypropylcellulose) (HPC) 92 % of control | dose: 400.0 mg/kg/injection, schedule: Q01DX009 (ip), vehicle: Klucel (hydroxypropylcellulose) (HPC) 86 % of control

C[C@]12CCC(=O)C=C1CC[C@@H]1[C@@H]2[C@@H](O)C[C@@]2(C)[C@H]1CC[C@]2(O)C(=O)COC(=O)CCC1CCCC1
inactive: dose: 50.0 mg/kg/injection, schedule: Q04DX003 (sc), vehicle: steriod suspending solution 100 % of control | dose: 100.0 mg/kg/injection, schedule: Q04DX003 (sc), vehicle: steriod suspending solution 96 % of control | dose: 200.0 mg/kg/injection, schedule: Q04DX003 (sc), vehicle: steriod suspending solution 97 % of control | dose: 400.0 mg/kg/injection, schedule: Q04DX003 (sc), vehicle: steriod suspending solution 96 % of control

CC(C)=CCOC1=CC(=O)C(=O)c2ccccc21
inactive: dose: 25.0 mg/kg/injection, schedule: Q04DX002 (ip), vehicle: saline with Tween-80 87 % of control | dose: 25.0 mg/kg/injection, schedule: Q04DX003 (ip), vehicle: saline with Tween-80 94 % of control | [6] 95 % of control | dose: 50.0 mg/kg/injection, schedule: Q04DX003 (ip), vehicle: saline with Tween-80 93 % of control | [7] 95 % of control | [4] 99 % of control

CC(C)(C)CC(C)(C)O
inactive: [1] 102 % of control | [2] 102 % of control | [3] 96 % of control

Reference: PubChem BioAssay AID248 (DTP/NCI, 2004)
